# “And” between values parts separate entries of the source, which are not always exact repeats. Equal entries are not always repeated.
# How the values were obtained:
# [1] = tested on: T. hyodysenteriae strain "P18a"; test: Agar-dilution M.I.C. test of M139603 and analogues (Example 8, Table 8); assay type: cell-based, Treponema hyodysenteriae; settings: Brachyspira hyodysenteriae, Isosensitest agar with 5% sheep-blood, anaerobic, 39° C., 48-72 hours
# Description: T. hyodysenteriae strain "P18a" was used in both in vitro and in vivo tests as above.
# Minimum inhibitory concentration test: An agar-dilution M.I.C. test procedure was applied in the study. The susceptibility of the bacterial strain was tested against a range of dilutions (0.3 mg; 0.1 mg; 0.03 mg; 0.01 mg and 0.003 mg/l medium) of each compound incorporated in plates of Isosensitest agar (Oxoid CM471) with 5% added sheep-blood. The plates, `spot-inoculated` (Steer's type multipoint inoculator) with a standard culture-suspension of the test strain, were incubated anaerobically at 39° C. for 48-72 hours before reading the results. The M.I.C. of each compound was read as the lowest concentration yielding no growth (no haemolysis) or a hazy growth (faint haemolysis) on the site of the spot-inoculation.
# T. hyodysenteriae = test: Comparative efficacy of M139603 and lasalocid in experimentally infected mice (Example 4, Table 4); assay type: in vivo, mice (strain MF-1); settings: 20 ppm feed
# Description: The infection leads to varying degrees of caecitis, the lesions of which are apparent in animals killed on or about the sixth day post-infection. Caecal specimens examined by bacteriological culture techniques applicable for enumeration of organisms reveal the presence of high populations of T.hyodysenteriae. This disease-model was used in experiments to compare the efficacy of M139603 with that of salinomycin, lasalocid and monensin in suppressing the infection.
# In this study, the efficacy of M139603 was tested at 25 ppm feed and that of monensin (Eli Lilly) at 50 or 100 ppm. Groups of infected mice, five per group, were offered the drugs in the feed on five continuous days before killing. Caecal materials were subjected to bacteriological examination to enumerate the populations of viable treponemes per gram of material. […] The group mean in respect of the unmedicated groups was 7.9 cfu/g.
# In this study, the efficacy of M139603 was tested at 20 ppm feed and that of lasalocid (Hoffman la Roche) at 20, 40 and 80 ppm. The test procedures were similar to those above except for the size of the inoculum of T.hyodysenteriae (1.2×10^7 cfu) used in infecting each mouse. […] The mean (log10) counts of viable treponemes found in the caecal contents of the various groups were: 2.5 cfu/g caecum (139603 at 20 ppm), 7.35 cfu (lasalocid at 20 ppm), 7.45 cfu (lasalocid at 40 ppm), 3.81 cfu (lasalocid at 80 ppm) and 8.50 cfu (unmedicated control).
# [2] = tested on: T. hyodysenteriae (strain "P18a"); test: Efficacy of M139603 in pigs, natural infection (Example 6, Table 6); assay type: in vivo; settings: for Mortality (+ culls): 38 days, 6 pigs; for Number diarrhoea/dysentery days / Percent diarrhoea/dysentery days: pi 1 to 38; for Average weight at end: start 10.95 kg
# Description: (§1) In this studY two groups (Gp.1 and Gp.2) of pigs, six per group, were experimentally infected with a pathogenic strain of T. hyodysenteriae (P18a, IRAD(Institute for Animal Health), Compton, Berks, U.K.) by oro-gastric inoculation of 50 ml of a culture suspension (1×10^7cfu/ml) of the organism into each animal. From post-infection day (PID) to PID 35 the animals in Gp. 1 were offered ad lib a feed comprising "Kwikwean" meal (Rank, Hovis, McDougall Research Ltd; containing no antibiotics) incorporated with M139603 at 25 ppm. Gp.2 remained on unmedicated feed throughout the trial. Drug efficacy was measured primarily on the basis of the number of diarrhoea or dysentery days in relation to pig-days within a group and on the average daily weight gain per pig, in each group over the period of the trial. The daily gain was calculated by dividing group gain at end of trial (PID 35) by the total number of pig-days from PID 1 to PID 35. […] In the experiment the pigs were exposed to high infective doses of the organism a day before the introduction of the drug. Under normal circumstances preventive dose-regimes are applied on animals at risk and not on those already infected.
# In this study, eighteen pigs were allocated to three equal groups (Gp.1-3). Feed incorporated with the drug at 25 or 15 ppm was offered to Gp.1 and 2, respectively, on thirty-eight consecutive days commencing six hours pre-infection. Gp.3 remained on unmedicated feed throughout the trial. The pigs were infected with T. hyodysenteriae (strain "P18a") using methods and materials similar to those applied in Example 5. However, seven days following this exposure (post-infection day 7), over a period of seven consecutive days, the pigs in Gp. 1 and 2 were allowed to co-mingle for about two hours each day with some dysenteric "seeder pigs" in a nearby pen. Drug efficacy, as in Example 6, was assessed primarily on the basis of the total number of diarrhoea/dysentery days per group and on the basis of average daily weight gain per pig per group. The results are indicative of the good efficacy of M139603 even at a level as low as 15 ppm feed in preventing swine dysentery. At this dose-level, the daily drug-intake is unlikely to be more than 0.9 mg/kg/body-weight, if daily feed is calculated at 6% of a pig's body-weight.
# T. hyodysenteriae (P18a) = test: Efficacy of M139603 in preventing swine dysentery in pigs, experimental infection (Example 5, Table 5); assay type: in vivo; settings: 25 ppm feed
# Description: The efficacy of M139603 was tested at 25 ppm feed.
# as §1
compound,measurement,setting,value
"CO[C@@H](C)[C@H]1C[C@H](C)[C@H]([C@@H](C)/C=C/[C@@H]2CC[C@@H](C)[C@H](/C(=C/[C@H]3CCC[C@@H](C)[C@@H]3[C@H](C)C(=O)C3=C(O)COC3=O)CO)O2)O1 [Analogue M139603, tetronasin]",MIC,[1],0.01 µg/mL
same,Complete suppression of infection,T. hyodysenteriae,completely suppressed the infection in two mice
same,Efficacy compared with lasalocid at 80 ppm,T. hyodysenteriae,greater than that of lasalocid at 80 ppm
same,Mean (log10) viable treponemes per gram caecal contents,"T. hyodysenteriae; 5 days, group mean (table)",1.62 log10 per gram
same,Viable treponemes per gram caecal contents,"T. hyodysenteriae; 5 days, individual mice",0 per gram and 4.3 × 10^3 per gram and 3.0 × 10^2 per gram and 1.0 × 10^2 per gram
same,Mean (log10) count of viable treponemes in caecal contents,T. hyodysenteriae; log10,2.5 cfu/g caecum
same,Reduction of T. hyodysenteriae populations,T. hyodysenteriae; other three mice,markedly reduced
same,Average daily weight-gain,[2]; 15 ppm feed,0.72 kg
same,Efficacy in preventing swine dysentery,[2]; 15 ppm feed,good efficacy
same,Mortality (+ culls),[2]; 15 ppm feed,0
same,Number diarrhoea/dysentery days,[2]; 15 ppm feed,0 days
same,Percent diarrhoea/dysentery days,[2]; 15 ppm feed,0%
same,Average weight at end,[2]; 15 ppm feed,41.0 kg
same,Group weight at end,"[2]; 15 ppm feed, start 65.5 kg",246.5 kg
same,Animals developing a transient dysentery,[2]; 25 ppm feed,one of the six animals
same,Average daily weight-gain,[2]; 25 ppm feed,0.72 kg
same,Mortality (+ culls),[2]; 25 ppm feed,0
same,Number diarrhoea/dysentery days,[2]; 25 ppm feed,14 days
same,Percent diarrhoea/dysentery days,[2]; 25 ppm feed,6.1%
same,Average weight at end,[2]; 25 ppm feed,41.0 kg
same,Group weight at end,"[2]; 25 ppm feed, start 65.7 kg",246.5 kg
same,Efficacy in preventing swine dysentery,T. hyodysenteriae (P18a),preventing or minimising the incidence of swine dysentery
same,Mortality (+ culls),"T. hyodysenteriae (P18a); 35 days, 6 pigs",0
same,Average daily weight-gain,T. hyodysenteriae (P18a); PID 1-35,0.62 kg
same,Number diarrhoea/dysentery days,T. hyodysenteriae (P18a); PID 1-35,27 days
same,Percent diarrhoea/dysentery days,T. hyodysenteriae (P18a); PID 1-35,12.9%
same,Average weight at termination,T. hyodysenteriae (P18a); start 18.8,40.5
same,Group weight at termination,T. hyodysenteriae (P18a); start 112 kg,243 kg
